Values after ≈ are worked out from the molar mass of the structure shown.
What was measured:
[1] = tested on: tested plant and human pathogens; assay: Overall antifungal activity, summary of susceptibility testing; assay type: cell-based; details: summary statement on Tables 1 and 2
Description: (§1) In vitro antifungal assays were performed by broth microdilution method according to the Clinical and Laboratory Standards Institute (CLSI, formerly NCCL) methods M27-A3 and M-38-A2. The activity was checked against plant pathogenic fungi Fusarium oxysporum CMI 113138, Aspergillus flavus ATCC 11499, Claviceps purpurea CMI 44613, Alternaria solani ATCC 11785, Ustilago maydis PRL 1549 and yeast Dekkera bruxellensis ATCC 36234. Briefly each compound stock was prepared in DMSO at concentration of 12800 μg/ml. For assay compound stocks were serially diluted two fold in microtiter plate and 4 μl of this was used for assay to get a final concentration in the range of 256-2 μg/ml. Spores of the filamentous fungi (˜2×10^4 spores/ml) and yeast cells freshly grown in YPG broth in logarithmic phase (˜2×10^3 cfu/ml) were suspended in the RPMI 1640 medium and 196 μl from these were inoculated in the wells of the plate. The microtitre plate was incubated for 48-72 h. Growth was checked by visual observation and measuring absorbance at 600 nm using microtitre plate reader.
(§2) Antifungal activity of the compounds was also checked against human pathogens Candida albicans ATCC 24433, C. albicans ATCC 10231, Candida glabrata NCYC 388, Candida tropicalis ATCC 750, Cryptococcus neoformans ATCC 34554, Aspergillus niger ATCC 10578, by following procedure described below.

C. albicans ATCC 24433 = assay: Spectrophotometric sterol analysis (effect on sterol composition); assay type: cell-based, Candida albicans; details: 0, 0.125, 0.25, 0.50, 1 and 2 μg/ml of compound, 16 h, 28° C.; heptane sterol extract scanned 220-300 nm (FIG. 1)
Description: FIG. 1: Spectrophotometric sterol analysis of Candida albicans ATCC 24433 exposed with different concentrations of compounds of the present invention and reference compounds.
Overnight grown culture of C. albicans ATCC 24433 was inoculated (10^6 cells/ml) in 50 ml 1% YPG broth containing 0, 0.125, 0.25, 0.50, 1, and 2 μg/ml of compounds. The flasks were incubated for 16 h with shaking at 28° C. The stationary-phase cells were harvested by centrifugation at 8000 rpm for 10 min and washed once with sterile distilled water. The net wet weight of the cell pellet was determined. To the 100 mg cell pellet, 3 ml of 25% alcoholic potassium hydroxide solution (25 g of KOH and 35 ml of sterile distilled water, brought to 100 ml with 100% ethanol), was added to each pellet and vortex mixed for 1 min. Cell suspensions were transferred to sterile borosilicate glass screw-cap tubes and were incubated in an 85° C. water bath for 1 h. Following incubation, tubes were allowed to cool to room temperature. Sterols were then extracted by addition of a mixture of 1 ml of sterile distilled water and 3 ml of n-heptane followed by vigorous vortex mixing for 3 min. The heptane layer was transferred to a clean borosilicate glass screw-cap tube and stored at −20° C. for as long as 24 h. Prior to analysis, a 20 μl aliquot of sterol extract was diluted fivefold in 100% ethanol and scanned spectrophotometrically between 220 and 300 nm on Spectrophotometer.

[2] = tested on: Alternaria solani ATCC 11785; assay: Broth microdilution antifungal susceptibility (MIC), plant pathogenic fungi; assay type: cell-based; details: ATCC11785, MIC = concentration exhibiting >90% inhibition of growth vs control, RPMI 1640, 48-72 h, read-out: Minimum Inhibitory Concentration, Alternaria solani ATCC 11785
Description: as §1

Ustilago maydis PRL 1549 = assay: as above; assay type: cell-based; details: Mycosarcoma maydis, PRL1549; MIC = concentration exhibiting >90% inhibition of growth vs control; RPMI 1640, 48-72 h; read-out: Minimum Inhibitory Concentration, Ustilago maydis PRL 1549
Description: as §1

[3] = tested on: Fusarium oxysporum CMI 113138; assay: as above; assay type: cell-based; details: CMI113138, MIC = concentration exhibiting >90% inhibition of growth vs control, RPMI 1640, 48-72 h, read-out: Minimum Inhibitory Concentration, Fusarium oxysporum CMI 113138
Description: as §1

[4] = tested on: Aspergillus flavus ATCC 11499; assay: as above; assay type: cell-based; details: ATCC11499, MIC = concentration exhibiting >90% inhibition of growth vs control, RPMI 1640, 48-72 h, read-out: Minimum Inhibitory Concentration, Aspergillus flavus ATCC 11499
Description: as §1

[5] = tested on: Claviceps purpurea CMI 44613; assay: as above; assay type: cell-based; details: CMI44613, MIC = concentration exhibiting >90% inhibition of growth vs control, RPMI 1640, 48-72 h, read-out: Minimum Inhibitory Concentration, Claviceps purpurea CMI 44613
Description: as §1

[6] = tested on: Dekkera bruxellensis ATCC 36234; assay: Broth microdilution antifungal susceptibility (MIC), yeast; assay type: cell-based; details: Brettanomyces bruxellensis, ATCC36234; MIC = concentration exhibiting >90% inhibition of growth vs control; RPMI 1640, 48-72 h; read-out: Minimum Inhibitory Concentration, Dekkera bruxellensis ATCC 36234
Description: as §1

[7] = tested on: Aspergillus niger ATCC 10578; assay: Antifungal susceptibility (MIC), human fungal pathogens; assay type: cell-based; details: ATCC10578, MIC = concentration exhibiting >90% inhibition of growth vs control, read-out: Minimum Inhibitory Concentration, A. niger ATCC 10578
Description: as §1, §2

[8] = tested on: Candida tropicalis ATCC 750; assay: as above; assay type: cell-based; details: ATCC750, MIC = concentration exhibiting >90% inhibition of growth vs control, read-out: Minimum Inhibitory Concentration, C.tropicalis ATCC 750
Description: as §1, §2

C. albicans ATCC 10231 = assay: as above; assay type: cell-based; details: Candida albicans, ATCC10231; MIC = concentration exhibiting >90% inhibition of growth vs control; read-out: Minimum Inhibitory Concentration, C.albicans ATCC 10231
Description: as §1, §2

[9] = tested on: Cryptococcus neoformans ATCC 34554; assay: as above; assay type: cell-based; details: ATCC34554, MIC = concentration exhibiting >90% inhibition of growth vs control, read-out: Minimum Inhibitory Concentration, C.neoformans ATCC 34554
Description: as §1, §2

[10] = tested on: Candida glabrata NCYC 388; assay: as above; assay type: cell-based; details: Nakaseomyces glabratus, NCYC388; MIC = concentration exhibiting >90% inhibition of growth vs control; read-out: Minimum Inhibitory Concentration, C.glabrata NCYC 388
Description: as §1, §2

[11] = tested on: Candida albicans ATCC 24433; assay: as above; assay type: cell-based; details: ATCC24433, MIC = concentration exhibiting >90% inhibition of growth vs control, read-out: Minimum Inhibitory Concentration, C.albicans ATCC 24433
Description: as §1, §2

| Structure (SMILES) | Antifungal activity against the tested plant and human pathogens (in words) [1] | Height of sterol absorbance peaks (ergosterol concentration) (C. albicans ATCC 24433) | MIC [2] [µg/mL] | MIC (Ustilago maydis PRL 1549) [µg/mL] | MIC [3] [µg/mL] | MIC [4] [µg/mL] | MIC [5] [µg/mL] | MIC [6] [µg/mL] | MIC [7] [µg/mL] | MIC [8] [µg/mL] | MIC (C. albicans ATCC 10231) [µg/mL] | MIC [9] [µg/mL] | MIC [10] [µg/mL] | MIC [11] [µg/mL] |
| --- | --- | --- | --- | --- | --- | --- | --- | --- | --- | --- | --- | --- | --- | --- |
| CCC(C)(C)c1ccc(CC(C)CN2CC[Si](C)(C)CC2)cc1 (centres unmarked) [NDS100444] | potent antifungal activity | dose-dependent decrease in the height of the absorbance peaks | 32 (≈ 96.5 µM) | < 2 | 64 (≈ 193 µM) | 64 (≈ 193 µM) | 16 (≈ 48.2 µM) | 4 (≈ 12.1 µM) | 0.5 (≈ 1.51 µM) | 64 (≈ 193 µM) | 0.5 (≈ 1.51 µM) | 2 (≈ 6.03 µM) | 8 (≈ 24.1 µM) | 4 (≈ 12.1 µM) |
| CC(Cc1ccc(C(C)(C)C)cc1)C(=O)N1CC[Si](C)(C)CC1 (centres unmarked) [NDS100415] |  |  | > 256 | > 256 | > 256 | > 256 | > 256 | > 256 | > 256 | > 256 | > 256 | > 256 | > 256 | > 256 |
| CC(Cc1ccc(C(C)(C)C)cc1)CN1C[C@@H](C)O[C@@H](C)C1 (some centres unmarked) [Fenpropimorph, reference compound] | potent antifungal activity | dose-dependent decrease in the height of the absorbance peaks | > 256 | > 256 | > 256 | > 256 | 32 (≈ 105 µM) |  | 1 (≈ 3.3 µM) | 4 (≈ 13.2 µM) | 0.25 (≈ 0.824 µM) | 0.125 (≈ 0.412 µM) | 0.125 (≈ 0.412 µM) | 0.125 (≈ 0.412 µM) |
| CC(Cc1ccc(C(C)(C)C)cc1)CN1CCCCC1 (centres unmarked) [Fenpropidin, reference compound] | potent antifungal activity | dose-dependent decrease in the height of the absorbance peaks | 128 (≈ 468 µM) | 128 (≈ 468 µM) | 256 (≈ 936 µM) | 256 (≈ 936 µM) | 32 (≈ 117 µM) | 128 (≈ 468 µM) | 0.5 (≈ 1.83 µM) | 8 (≈ 29.3 µM) | 1 (≈ 3.66 µM) | 0.5 (≈ 1.83 µM) | 0.25 (≈ 0.914 µM) | 0.5 (≈ 1.83 µM) |
| CC(Cc1ccc([Si](C)(C)C)cc1)CN1CC[Si](C)(C)CC1 (centres unmarked) [NDS100579, 4,4-dimethyl-1-(2-methyl-3-(4-(trimethylsilyl)phenyl)propyl)-1,4-azasilinane] |  |  | > 256 | > 256 | > 256 | > 256 | 64 (≈ 192 µM) |  | 0.5 (≈ 1.5 µM) | 64 (≈ 192 µM) | 1 (≈ 3 µM) | 2 (≈ 5.99 µM) | 2 (≈ 5.99 µM) | 2 (≈ 5.99 µM) |
| CC(Cc1ccc(C(C)(C)C)cc1)CN1CC[Si](C)(C)CC1 (racemic) [NDS100414, (R,S)1-(3-(4-(tert-butyl)phenyl)-2-methylpropyl)-4,4-dimethyl-1,4-azasilinane] | potent antifungal activity | dose-dependent decrease in the height of the absorbance peaks | 32 (≈ 101 µM) | 32 (≈ 101 µM) | 64 (≈ 202 µM) | 128 (≈ 403 µM) | 4 (≈ 12.6 µM) | 16 (≈ 50.4 µM) | 0.5 (≈ 1.57 µM) | 64 (≈ 202 µM) | 0.5 (≈ 1.57 µM) | 2 (≈ 6.3 µM) | 4 (≈ 12.6 µM) | 4 (≈ 12.6 µM) |
| CC(Cc1ccc(C(C)(C)C)cc1)C(=O)NC[Si](C)(C)c1ccccc1 (centres unmarked) [NDS100582] |  |  | > 256 | > 256 | > 256 | > 256 | > 256 |  | > 256 | > 256 | > 256 | > 256 | > 256 | > 256 |

From patent publication US10053472B2, “Silicon-based fungicides and process for producing the same” (COUNCIL OF SCIENTIFIC & INDUSTRIAL RESEARCH, priority 2014, dated 2018)
